The source of these data is patent US9968636B2, “Peritoneal dialysis fluid comprising a GSK-3 inhibitor” (ZYTOPROTEC GMBH, priority 2011, dated 2018).

The subject of experiment [1] is human Met-5a cell line (mesothelial cells). Nature of the experiment: LDH release into the supernatant after PD fluid exposure. The note with it: for LDH levels: icodextrin-based fluid. The experiment is classed as cell-based. As to the method:
(§1) The human Met-5a cell line was purchased from American Type Culture Collection (ATCC, Rockville, Md.). All cells were cultured in M199 culture medium supplemented with L-glutamine (0.1 g/L), penicillin (100 U/mL), streptomycin (100 μg/mL), 10% fetal bovine serum (FBS) and propagated at 37° C. in a humidified air containing 5% CO2 incubator. Standard chemicals were purchased from Sigma-Aldrich (St. Louis, Mo., USA) unless otherwise stated. Falcon™ tissue culture plastics (Becton Dickinson, Franklin Lakes, N.J., USA) were used for all cell culture procedures.
(§2) PDF exposure model: confluent cultures on 12-well plates were exposed for the indicated times (30 min or 1 h) to the PD fluid solution or kept in parallel in control medium. For HSF-1 activity assay, cells were harvested and lysed immediately after exposure times, whereas for measurements of LDH and HSP-72, p-GSK-3β Western blot analysis, cells were allowed to recover by incubation with normal culture medium containing 10% FBS for 16 h.
For LDH analyses, 200 μL aliquots of supernatants were removed after the described experimental setup and kept on −20° C. until analyzed within 48 h. Measurements were performed in duplicates with Sigma TOX-7 LDH Kit according to the manufacturer's instructions. LDH efflux was normalized for protein content.
Background: LDH in the medium is a marker of cell lysis.

For experiment [2] the test system is unchanged. Nature of the experiment: Cell viability by neutral red uptake after PD fluid exposure. The following applies: 10 mM LiCl; low pH glucose-based or icodextrin-based PD fluids; 1 h exposure, 16 h recovery; FIG. 3. Here is the method:
as §1, §2
To assess cell viability by neutral red uptake, cells were seeded out to 96-well plates and exposed to different treatment protocols as described before. Neutral red uptake was measured using a standard reagent (Sigma-Aldrich, St. Louis, Mo., USA) according to the manufacturer's protocol.

For experiment [3], the system named is heat shock factor-1 (HSF-1). Nature of the experiment: HSF-1 activity by Luciferase assay (heat shock element reporter). The experiment is classed as cell-based, human. The note with it: 10 mM LiCl; control cells, glucose-based low pH high GDP and low pH icodextrin-based PD fluids; 30 min exposure, 6 h recovery; FIG. 4. As to the method:
PDF exposure model: confluent cultures on 12-well plates were exposed for the indicated times (30 min or 1 h) to the PD fluid solution or kept in parallel in control medium. […], whereas for measurements of LDH and HSP-72, p-GSK-3β Western blot analysis, cells were allowed to recover by incubation with normal culture medium containing 10% FBS for 16 h.
To determine the specific binding of the heat shock factor-1 (HSF-1), a commercially available Luciferase Reporter Vector (LR0038, Panomics, Italy) containing the heat shock element [5′[…]3′] as well as an empty control vector were transfected into the MeT-5a cells. 24 h prior to transfection, MC were seeded onto 96-well cell culture plates and allowed to reach approximately 80-90% confluence on day of transfection. Before transfection per well 0.15 μl Fugene6 (Roche) transfection reagent and 0.1 μl HSE reporter vector or control vector were each diluted with 5 μl of normal growth medium without FCS and incubated for 5 min. The solutions were mixed incubated for 30 min. Of this mix 10 μl were added to each well incubated for 24 h at 5% CO2 and 37° C. in a humidified atmosphere. […] The luciferase reagent (E1500, Promega) was added using an automatic pipette in 3 s intervals and the yielded signal was measured after 2 min using a luminometer plate reader (Flx800, BioTek).

Experiment [4] concerns Heat shock protein-72 (HSP-72). Description: HSP-72 expression by Western blot. The experiment is classed as cell-based, human. As to the method: as §2
For western blotting, protein content is determined by the Bradford assay (Biorad, Vienna, Austria) and equal amounts of protein samples (2 μg/lane) are separated by standard SDS-PAGE using a Pharmacia Multiphore II unit. Size-fractionated proteins are then transferred to PVDF membranes by semi-dry transfer in a Pharmacia Multiphore II Novablot unit. Membranes are blocked in 5% dry milk in TBS-Tween (10 mM Tris, 150 mM NaCl, 0.05% Tween 20, pH 7.4). Membranes are incubated with the respective primary antibody (HSP-72, p-GSK-3β) for 16 h. Detection is accomplished by incubation with secondary, peroxidase-coupled antibodies (anti-mouse or anti-rabbit IgG, both Dako Cytomation, Calif., USA) and enhanced chemiluminescence (ECL) using the ECL western blotting analysis system (Renaissance, NEN-Life Science Products, Boston, Mass., USA).
(In general: In western blotting, separated proteins are transferred to a membrane and probed.)

The test system of experiment [5] is mesothelial cells. Description: Light microscopy and vital-dead (live-dead) staining of mesothelial cells. The class given is cell-based, human. The following applies: LiCl, low pH glucose-based or icodextrin-based PD fluids, data not shown. Here is the method:
as §2

Entries after “also recorded” stand apart in the source; their conditions may differ.

Regarding `[Cl-].[Li+]` [LiCl, Lithium-chloride], in experiment [1] (10 mM LiCl added, all PD fluids observed, 1 h exposure, 16 h recovery, vs no LiCl, FIG. 2), the “LDH release (cell injury)” value is “decreased LDH release; also recorded: attenuated LDH release”. Moreover, the “protection (LDH release)” value in experiment [1] (10 mM LiCl, incubation with low pH glucose-based and icodextrin-based solutions, FIG. 2) was “most prominent protection”. Moreover, the LDH levels result in experiment [1] (1 mM LiCl, FIG. 6) is recorded as “did not change significantly”; in experiment [1] (2 mM LiCl, FIG. 6) it was “already decreased”; in experiment [1] (5 mM LiCl, FIG. 6), “the decrease was even more significant”; in experiment [1] (10 mM LiCl, FIG. 6) it was “the decrease was even more significant”. Also, the LDH release result in experiment [1] (low pH glucose-based (PDF) fluid, 10 mM LiCl, FIG. 6) is listed as “significantly reduced”. Moreover, the “release of LDH into the supernatant” value in experiment [1] (low pH glucose-based (PDF) fluid, LiCl 1 mM to 5 mM, FIG. 6) was “did not alter”. The “number of viable cells (neutral red uptake)” value in experiment [2] is given as “improved cell viability; also recorded: increased number of viable cells”. Besides, the HSF-1 transcriptional activity entry in experiment [3] was “significantly increased”. Moreover, the “level of HSP-72” value in experiment [4] (10 mM LiCl, each incubation setting (glucose-based or icodextrin-based PD fluid, 30 min or 1 h) vs respective untreated cells, FIG. 5) is on record as “significantly increased”. For the same molecule, the HSP-72 expression entry in experiment [4] (glucose-based low pH PDF, LiCl 1, 2, 5, 10 mM vs untreated cells, 30 min exposure, 16 h recovery, FIG. 8) is reported as “increased only after administration of either 2 mM or 10 mM LiCl”. Also, the HSP-72 protein expression entry in experiment [4] (icodextrin-based PD fluid, LiCl 1, 2, 5, 10 mM, 30 min exposure, 16 h recovery, FIG. 8) is “all the applied LiCl doses increased”. Further, the cell structure result in experiment [5] is recorded as “preserved cell structure”. Further, the “rate of dead cells” value in experiment [5] (live-dead staining) is reported as “reduced cell death rate; also recorded: reduced rate of dead cells”.
